Test systems include SK-OV-3 ovarian; U251 CNS; NCI-H23 lung; ACHN renal; OVCAR-8 ovarian; SF-295 CNS; MALME-3M melanoma; OVCAR-5 ovarian; HOP-92 NSCLC.
What all share (assay): NCI tumour cell line growth inhibition, 48 h

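Cultured in 96-well plates, cells were exposed to test compound for 48 hours across five concentrations. GI50: concentration for 50% inhibition of growth. The concentration for full growth arrest is given as TGI.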

On to `O=S(=O)(C1=CC(S(=O)(=O)c2ccccc2)COC1)c1ccccc1` (stereo unspecified), for which the TGI in the test on SK-OV-3 ovarian, with U251 CNS, in the test on NCI-H23 lung, in the test on ACHN renal, with OVCAR-8 ovarian and with SF-295 CNS was more than 100 µM each time. This molecule gave a TGI with MALME-3M melanoma of more than 100 µM.

Consider `CCCCCCCCSC(=O)NCCCC`, for which the TGI with SK-OV-3 ovarian was more than 100 µM; in the test on U251 CNS, more than 100 µM; with OVCAR-5 ovarian, more than 100 µM; in the test on NCI-H23 lung it was more than 100 µM; in the test with HOP-92 NSCLC, 53.9 µM; in the test on ACHN renal it was more than 100 µM. In addition, the TGI is more than 100 µM with OVCAR-8 ovarian, more than 100 µM in the test on SF-295 CNS and 68.5 µM with MALME-3M melanoma.

Turning to `C/C(=C1/N=C(c2cc([N+](=O)[O-])ccc2Cl)N(c2ccc(Br)cc2)C1=O)c1ccc(N(CCC#N)CCC#N)cc1C`, the TGI in the test on SK-OV-3 ovarian, in the test on OVCAR-5 ovarian, with NCI-H23 lung, in the test with HOP-92 NSCLC, in the test on ACHN renal and in the test on OVCAR-8 ovarian was more than 100 µM in each case. Also, the TGI in the test with SF-295 CNS and in the test on MALME-3M melanoma was more than 100 µM in each case.

On to `Cc1ccccc1/C=C/c1csnn1`, for which the TGI with SK-OV-3 ovarian, in the test on U251 CNS, in the test on OVCAR-5 ovarian, in the test on NCI-H23 lung, with HOP-92 NSCLC and in the test with ACHN renal was more than 100 µM each time. Further, the TGI in the test with OVCAR-8 ovarian, in the test on SF-295 CNS and in the test on MALME-3M melanoma was more than 100 µM each time.

For `Cc1noc2cccc(O)c12`, the TGI in the test on SK-OV-3 ovarian, with U251 CNS, with OVCAR-5 ovarian, with NCI-H23 lung, with HOP-92 NSCLC and with ACHN renal was more than 100 µM throughout. The TGI in the test on OVCAR-8 ovarian, in the test with SF-295 CNS and in the test with MALME-3M melanoma was more than 100 µM in each case.

In the case of `COC(=O)C(=O)C(CC(=O)Nc1cc(Cl)ccc1Cl)C(=O)OC` (stereo unspecified), the TGI in the test with SK-OV-3 ovarian, with U251 CNS, with OVCAR-5 ovarian, in the test with NCI-H23 lung, in the test with HOP-92 NSCLC and in the test on ACHN renal was more than 100 µM each time. Also, the TGI with OVCAR-8 ovarian, in the test with SF-295 CNS and in the test with MALME-3M melanoma was more than 100 µM throughout.

Turning to `CC12Nc3ccccc3C1=C(c1ccccc1)CC1C(=O)OC(=O)C12` (stereo unspecified), the TGI with U251 CNS, with OVCAR-5 ovarian, in the test on NCI-H23 lung, in the test with HOP-92 NSCLC, in the test on ACHN renal and in the test on OVCAR-8 ovarian was more than 100 µM each time. In addition, the TGI with SF-295 CNS and in the test with MALME-3M melanoma was more than 100 µM throughout.

Regarding `Nc1cn(C2OC(CC(c3ccccc3)(c3ccccc3)c3ccccc3)C(O)C2O)c(=O)[nH]c1=O` (stereo unspecified), the TGI in the test on SK-OV-3 ovarian was 98.2 µM; in the test on U251 CNS, 32.1 µM; with OVCAR-5 ovarian, more than 100 µM; in the test on NCI-H23 lung it was 65.8 µM; with HOP-92 NSCLC, 39 µM; with ACHN renal, more than 100 µM. Also, the TGI in the test with OVCAR-8 ovarian turned out to be 89.6 µM; in the test on SF-295 CNS, 99.7 µM; in the test on MALME-3M melanoma it was 55.7 µM.

For `NC(CCSCC(F)(F)F)C(=O)O` (stereo unspecified), the TGI with U251 CNS, in the test on OVCAR-5 ovarian, in the test with NCI-H23 lung, in the test with HOP-92 NSCLC, in the test with ACHN renal and in the test on OVCAR-8 ovarian was more than 100 µM throughout. The TGI in the test with SF-295 CNS and with MALME-3M melanoma was more than 100 µM each time.

Take `COc1cccc(/C=N/[N-]C(=O)c2ccncc2)c1[O-].[Mn+2].[OH3+]`: the GI50 is 5.94 µM with SK-OV-3 ovarian; 5.45 µM with U251 CNS; 37 µM with OVCAR-5 ovarian; 8.12 µM in the test on NCI-H23 lung; 24.7 µM in the test on HOP-92 NSCLC; 3.75 µM with ACHN renal. Further, the GI50 in the test on OVCAR-8 ovarian was 3.77 µM; with SF-295 CNS it was 16.2 µM; with MALME-3M melanoma, 25.5 µM. The TGI with SK-OV-3 ovarian was 50.2 µM; in the test with U251 CNS, more than 100 µM; in the test on OVCAR-5 ovarian it was 88.9 µM; in the test on NCI-H23 lung, 41.1 µM; in the test on HOP-92 NSCLC, more than 100 µM; in the test with ACHN renal, 47.8 µM. Besides, the TGI in the test with OVCAR-8 ovarian, in the test with SF-295 CNS and with MALME-3M melanoma was more than 100 µM in each case.

Consider `C[N+]1=C(c2cccnc2/C=N/O)OCC1(C)C`, for which the TGI in the test with SK-OV-3 ovarian, in the test with U251 CNS, in the test on OVCAR-5 ovarian, with NCI-H23 lung, with HOP-92 NSCLC and in the test with ACHN renal was more than 100 µM in each case. Further, the TGI with OVCAR-8 ovarian, in the test with SF-295 CNS and with MALME-3M melanoma was more than 100 µM throughout.

As to `CC(=O)Nc1ccccc1-c1nc2ccccc2nc1-c1ccccc1`, the TGI with SK-OV-3 ovarian, in the test with U251 CNS, in the test with NCI-H23 lung, in the test with HOP-92 NSCLC, with ACHN renal and in the test on OVCAR-8 ovarian was more than 100 µM throughout. In addition, the TGI in the test on SF-295 CNS is more than 100 µM.

`O=C(Nc1cccc(C(F)(F)F)c1)C(=O)C(C(=O)c1ccc(Cl)c(Cl)c1)C1OC(=O)c2ccccc21` (stereo unspecified): the TGI in the test on SK-OV-3 ovarian, in the test on U251 CNS, in the test with OVCAR-5 ovarian, in the test on NCI-H23 lung, in the test with HOP-92 NSCLC and in the test with ACHN renal was more than 100 µM throughout. The TGI in the test with OVCAR-8 ovarian is more than 100 µM; in the test on MALME-3M melanoma it was 76.9 µM.

On to `c1ccc2c(c1)[nH]c1cnc3c4ncccc4[nH]c3c12`, for which the TGI in the test with SK-OV-3 ovarian was more than 100 µM; in the test on U251 CNS, more than 100 µM; in the test on OVCAR-5 ovarian it was more than 100 µM; with NCI-H23 lung it was more than 100 µM; in the test on HOP-92 NSCLC, 79.3 µM; with ACHN renal, more than 100 µM. The TGI in the test on OVCAR-8 ovarian, with SF-295 CNS and in the test on MALME-3M melanoma was more than 100 µM in each case.

For the molecule `O/N=C1/CCCC/C1=C/C=C/c1ccccc1`, the TGI was more than 100 µM with SK-OV-3 ovarian; 32.3 µM with U251 CNS; 76 µM in the test on OVCAR-5 ovarian; 60.5 µM in the test on NCI-H23 lung; 36.7 µM with HOP-92 NSCLC; 72.5 µM in the test with ACHN renal. Further, the values for the TGI in the test with OVCAR-8 ovarian, in the test with SF-295 CNS and in the test on MALME-3M melanoma were more than 100 µM, 69.8 µM and 41 µM, respectively.

The record behind these values is PubChem BioAssay (NCI).
